Reference: patent publication US7297700B2, “Bicycloheteroaryl compounds as P2X7 modulators and uses thereof” (Renovis, Inc., priority 2005, dated 2007)

system: IL-1β release from THP-1 cells; assay: IL-1β Release Assay (Alternate Method), THP-1 cells; type: cell-based, human; conditions: at 0.3 μM; THP-1 cells
How it was run: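 THP-1 cells differentiated 16 h with 100 ng/mL LPS plus 100 ng/mL IFN-γ, reprimed 2 h with 100 ng/mL LPS, pretreated 30 min with compound, then challenged 45 min with 250 uM BzATP (final). Supernatant IL-1β quantified by ELISA; percent inhibition from background-adjusted levels versus untreated cells.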

| Compound | IL-1β % inhibition |
| --- | --- |
| COc1ccc(C(=O)N2CCc3c(ncnc3NC(=O)CC34CC5CC(CC(C5)C3)C4)C2)c(OC)c1 [Compound 275] | +++ (compound exhibited 50-75% inhibition at 0.3 μM) |
| O=C(CC12CC3CC(CC(C3)C1)C2)Nc1ncnc2c1CCN(C(=O)C1CCCCC1)C2 [Compound 244] | ++ (compound exhibited 25-50% inhibition at 0.3 μM) |
| Cc1cc(C(=O)N2CCc3c(ncnc3NC(=O)CC34CC5CC(CC(C5)C3)C4)C2)nn1C [Compound 284] | ++ (compound exhibited 25-50% inhibition at 0.3 μM) |
| O=C(CC12CC3CC(CC(C3)C1)C2)Nc1ncnc2c1CCN(Cc1ccc3c(c1)CCO3)C2 [Compound 105] | + (compound exhibited 0-25% inhibition at 0.3 μM) |
| O=C(CC12CC3CC(CC(C3)C1)C2)Nc1ncnc2c1CCN(C(=O)c1cc(F)cc(C(F)(F)F)c1)C2 [Compound 267] | ++ (compound exhibited 25-50% inhibition at 0.3 μM) |
| COc1ccc(F)c(CN2CCc3c(ncnc3NC(=O)CC34CC5CC(CC(C5)C3)C4)C2)c1 [Compound 104] | +++ (compound exhibited 50-75% inhibition at 0.3 μM) |
| O=C(NCC1CCCCC1)c1ncnc2c1CCN(Cc1cccc(Cl)c1)C2 [Compound 53] | + (compound exhibited 0-25% inhibition at 0.3 μM) |
| CN1CCc2c(ncnc2NC(=O)CC23CC4CC(CC(C4)C2)C3)C1 [Compound 7] | + (compound exhibited 0-25% inhibition at 0.3 μM) |
| CC(C)(C(=O)Nc1ncnc2c1CCN(C(=O)CC1CCCC1)C2)C12CC3CC(CC(C3)C1)C2 [Compound 365] | + (compound exhibited 0-25% inhibition at 0.3 μM) |
| O=C(CC12CC3CC(CC(C3)C1)C2)Nc1ncnc2c1CCN(C(=O)c1cccc(Cl)c1)C2 [Compound 253] | +++ (compound exhibited 50-75% inhibition at 0.3 μM) |
| COc1ccc(C)cc1S(=O)(=O)N1CCc2c(ncnc2NC(=O)CC23CC4CC(CC(C4)C2)C3)C1 [Compound 214] | + (compound exhibited 0-25% inhibition at 0.3 μM) |
| O=C(CC12CC3CC(CC(C3)C1)C2)Nc1ncnc2c1CCN(Cc1cc(F)ccc1C(F)(F)F)C2 [Compound 96] | + (compound exhibited 0-25% inhibition at 0.3 μM) |
| N#Cc1ccc(S(=O)(=O)N2CCc3c(ncnc3NC(=O)CC34CC5CC(CC(C5)C3)C4)C2)c(Cl)c1 [Compound 165] | +++ (compound exhibited 50-75% inhibition at 0.3 μM) |
| Cc1ccccc1CN1CCc2c(ncnc2NC(=O)CC23CC4CC(C)(CC(C)(C4)C2)C3)C1 [Compound 372] | +++ (compound exhibited 50-75% inhibition at 0.3 μM) |
| COc1cccc(CN2CCc3c(ncnc3C(=O)NCC34CC5CC(CC(C5)C3)C4)C2)c1 [Compound 335] | ++ (compound exhibited 25-50% inhibition at 0.3 μM) |
| O=C(CC12CC3CC(CC(C3)C1)C2)Nc1ncnc2c1CCN(C(=O)c1ccc(F)cc1F)C2 [Compound 277] | +++ (compound exhibited 50-75% inhibition at 0.3 μM) |
| Cc1ccc(S(=O)(=O)N2CCc3c(ncnc3NC(=O)CC34CC5CC(CC(C5)C3)C4)C2)cc1 [Compound 144] | +++ (compound exhibited 50-75% inhibition at 0.3 μM) |

| Compound | IL-1β % inhibition |
| --- | --- |
| Cc1ccc(C)c(CN2CCc3c(ncnc3NC(=O)CC34CC5CC(CC(C5)C3)C4)C2)c1 [Compound 32] | + (compound exhibited 0-25% inhibition at 0.3 μM) |
| O=C(Cc1ccccc1)N1CCc2c(ncnc2NC(=O)C23CC4CC(CC(C4)C2)C3)C1 [Compound 398] | +++ (compound exhibited 50-75% inhibition at 0.3 μM) |
| COc1ccc(OC)c(CC(=O)N2CCc3c(ncnc3NC(=O)CC34CC5CC(CC(C5)C3)C4)C2)c1 [Compound 239] | ++ (compound exhibited 25-50% inhibition at 0.3 μM) |
| O=C(NCC1CCCCC1)c1ncnc2c1CCN(Cc1ccncc1)C2 [Compound 49] | + (compound exhibited 0-25% inhibition at 0.3 μM) |
| O=C(NCCc1ccccc1Cl)c1ncnc2c1CCN(Cc1ccccc1)C2 [Compound 1] | + (compound exhibited 0-25% inhibition at 0.3 μM) |
| O=C(CC12CC3CC(CC(C3)C1)C2)Nc1ncnc2c1CCN(C(=O)c1cnn(-c3ccccc3)c1C(F)(F)F)C2 [Compound 286] | +++ (compound exhibited 50-75% inhibition at 0.3 μM) |
| Cc1cccc(CN2CCc3c(ncnc3NC(=O)CC34CC5CC(CC(C5)C3)C4)C2)n1 [Compound 118] | + (compound exhibited 0-25% inhibition at 0.3 μM) |
| O=C(CC12CC3CC(CC(C3)C1)C2)Nc1ncnc2c1CCN(C(=O)c1ccc(OC(F)(F)F)cc1)C2 [Compound 228] | + (compound exhibited 0-25% inhibition at 0.3 μM) |
| Cc1ccccc1C(=O)N1CCc2c(ncnc2NC(=O)CC23CC4CC(CC(C4)C2)C3)C1 [Compound 278] | +++ (compound exhibited 50-75% inhibition at 0.3 μM) |
| Cc1ccc(C2(CNC(=O)c3ncnc4c3CCN(Cc3ccccc3)C4)CCCCC2)cc1 [Compound 60] | + (compound exhibited 0-25% inhibition at 0.3 μM) |
| O=C(NCC12CC3CC(CC(C3)C1)C2)c1ncnc2c1CCN(Cc1cccc(F)c1)C2 [Compound 316] | + (compound exhibited 0-25% inhibition at 0.3 μM) |
| O=C(CC12CC3CC(CC(C3)C1)C2)Nc1ncnc2c1CCN(S(=O)(=O)c1ccc(F)c(Cl)c1)C2 [Compound 193] | + (compound exhibited 0-25% inhibition at 0.3 μM) |
| O=C(CC12CC3CC(CC(C3)C1)C2)Nc1ncnc2c1CCN(Cc1ccc(Cl)cc1F)C2 [Compound 328] | +++ (compound exhibited 50-75% inhibition at 0.3 μM) |
| O=C(CC1CCCCC1)Nc1ncnc2c1CCN(CCO)C2 [Compound 22] | + (compound exhibited 0-25% inhibition at 0.3 μM) |
| O=C(CC12CC3CC(CC(C3)C1)C2)Nc1ncnc2c1CCN(C(=O)c1ccc3ccccc3n1)C2 [Compound 303] | +++ (compound exhibited 50-75% inhibition at 0.3 μM) |
| O=C(CC1CCCCC1)Nc1ncnc2c1CCNC2 [Compound 11] | + (compound exhibited 0-25% inhibition at 0.3 μM) |
| O=C(CC12CC3CC(CC(C3)C1)C2)Nc1ncnc2c1CCN(Cc1ccccc1OCCO)C2 [Compound 100] | ++ (compound exhibited 25-50% inhibition at 0.3 μM) |

same assay, conditions: at 0.3 μM; THP-1 cells, BzATP-stimulated

| Compound | IL-1β % inhibition |
| --- | --- |
| N#Cc1cccc(CN2CCc3c(ncnc3NC(=O)C34CC5CC(CC(C5)C3)C4)C2)c1 [Compound 571] | ++++ (compound exhibited 75% or greater inhibition at 0.3 μM) |
| O=C(Nc1ncnc2c1CCN(S(=O)(=O)Cc1cc(Cl)cc(Cl)c1)C2)C12CC3CC(CC(C3)C1)C2 [Compound 519] | +++ (compound exhibited 50-75% inhibition at 0.3 μM) |
| O=C(Nc1ncnc2c1CCN(Cc1cc3c(cc1Cl)OCO3)C2)C12CC3CC(CC(C3)C1)C2 [Compound 599] | + (compound exhibited 0-25% inhibition at 0.3 μM) |
| O=C(Nc1ncnc2c1CCN(Cc1cccc(Cl)c1)C2)C12CC3CC(CC(C3)C1)C2 [Compound 598] | + (compound exhibited 0-25% inhibition at 0.3 μM) |
| COc1cc(F)c(CN2CCc3c(ncnc3NC(=O)C34CC5CC(CC(C5)C3)C4)C2)cc1OC [Compound 623] | + (compound exhibited 0-25% inhibition at 0.3 μM) |
| CCOc1cccc(CN2CCc3c(ncnc3NC(=O)C34CC5CC(CC(C5)C3)C4)C2)c1 [Compound 625] | + (compound exhibited 0-25% inhibition at 0.3 μM) |
| O=C(c1ccccc1Cl)N1CCc2c(ncnc2NC(=O)C23CC4CC(CC(C4)C2)C3)C1 [Compound 464] | ++ (compound exhibited 25-50% inhibition at 0.3 μM) |
| O=C(Nc1ncnc2c1CCN(S(=O)(=O)Cc1ccc(F)cc1)C2)C12CC3CC(CC(C3)C1)C2 [Compound 517] | ++ (compound exhibited 25-50% inhibition at 0.3 μM) |
| O=C(c1ccno1)N1CCc2c(ncnc2NC(=O)C23CC4CC(CC(C4)C2)C3)C1 [Compound 466] | + (compound exhibited 0-25% inhibition at 0.3 μM) |
| O=C(Nc1ncnc2c1CCN(S(=O)(=O)c1cccc(C(F)(F)F)c1)C2)C12CC3CC(CC(C3)C1)C2 [Compound 492] | +++ (compound exhibited 50-75% inhibition at 0.3 μM) |
| O=C(Nc1ncnc2c1CCN(Cc1ccc3c(c1)OC(F)(F)O3)C2)C12CC3CC(CC(C3)C1)C2 [Compound 627] | ++++ (compound exhibited 75% or greater inhibition at 0.3 μM) |
| O=C(Nc1ncnc2c1CCN(S(=O)(=O)c1ccc(F)c(Cl)c1)C2)C12CC3CC(CC(C3)C1)C2 [Compound 526] | ++ (compound exhibited 25-50% inhibition at 0.3 μM) |
| COc1ccc(Oc2ccc(S(=O)(=O)N3CCc4c(ncnc4NC(=O)C45CC6CC(CC(C6)C4)C5)C3)cc2)cc1 [Compound 509] | +++ (compound exhibited 50-75% inhibition at 0.3 μM) |
| COc1ccc(OC)c(S(=O)(=O)N2CCc3c(ncnc3NC(=O)C34CC5CC(CC(C5)C3)C4)C2)c1 [Compound 549] | ++ (compound exhibited 25-50% inhibition at 0.3 μM) |
| Cc1ccc(S(=O)(=O)N2CCc3c(ncnc3NC(=O)C34CC5CC(CC(C5)C3)C4)C2)cc1Cl [Compound 541] | ++++ (compound exhibited 75% or greater inhibition at 0.3 μM) |
| N#Cc1cccc(C(=O)N2CCc3c(ncnc3NC(=O)C34CC5CC(CC(C5)C3)C4)C2)c1 [Compound 414] | ++ (compound exhibited 25-50% inhibition at 0.3 μM) |
| O=C(Nc1ncnc2c1CCN(Cc1ccc(OCc3ccc(F)cc3)cc1)C2)C12CC3CC(CC(C3)C1)C2 [Compound 622] | ++ (compound exhibited 25-50% inhibition at 0.3 μM) |
| COc1cc(CN2CCc3c(ncnc3NC(=O)C34CC5CC(CC(C5)C3)C4)C2)ccc1OCc1ccccc1 [Compound 588] | ++ (compound exhibited 25-50% inhibition at 0.3 μM) |
| Cc1cc(C(=O)N2CCc3c(ncnc3NC(=O)C34CC5CC(CC(C5)C3)C4)C2)c(C)o1 [Compound 463] | ++ (compound exhibited 25-50% inhibition at 0.3 μM) |
| COc1ccc(C)cc1S(=O)(=O)N1CCc2c(ncnc2NC(=O)C23CC4CC(CC(C4)C2)C3)C1 [Compound 548] | + (compound exhibited 0-25% inhibition at 0.3 μM) |
